# Assays:
# [1] = tested on: surviving human skins treated by human leukocyte elastase (HLE); assay: ex vivo activity on human skin fragments kept surviving 10 days in culture with HLE, elastic fibre morphometry; conditions: HLE 0.5 μg per ml of medium + 5 μl of compound at 0.2% in ethanol every other day, 37° C., 3 donors
# Description: The ex vivo activity of the compound in example 2 has been evaluated on surviving human skins treated by human leukocyte elastase (HLE). Fragments of normal human skin, originating from 3 different donors, are placed in inserts positioned in culture wells. Some antibiotic supplemented culture medium is added in the bottom of the wells. A passage occurs through slow diffusion between both compartments by means of a porous membrane (pore size: 12 μm). The culture medium is renewed every three days. Optionally 0.5 μg of HLE per ml of culture medium are optionally added on the skin fragments. Also are added, every other day, 5 μl of the compound to be tested, previously put in a solution at 0.2% in weight in ethanol. The skins are kept surviving for 10 days at 37° C. The elastic fibres are coloured in blue using (+) catechin and are morphometrically quantified by computer assisted picture analysis. The surface percentage of average dermis occupied by the elastic fibres was evaluated this way.
# [2] = tested on: surviving human skins treated by human leukocyte elastase (HLE); assay: ex vivo activity on fresh cuts of surviving human skins treated by HLE for 2 hours, elastic fibre morphometry; conditions: 20° C.
# Description: The ex vivo activity of the compound in example 2 has been evaluated on surviving human skins treated by human leukocyte elastase (HLE). Fresh cuts from human skins, originating from 2 different donors, are treated for 2 hours, at 20° C., by 20 μl of a buffer solution (pH 7.4) optionally comprising 10 μg/ml of HLE and optionally 0.1% of the compound to be tested, optionally previously put in a solution in ethanol. The elastic fibres are coloured in blue using (+) catechin and are morphometrically quantified by computer assisted picture analysis. The surface percentage of average dermis occupied by the elastic fibres was evaluated this way.
# [3] = tested on: surviving UVA irradiated human skins (8 J/cm^2); assay: activity on surviving UVA irradiated human skins, morphometry of elastic fibres and collagen; conditions: UVA 8 J/cm^2 + 5 μl of compound at 0.2% in ethanol every two days; 7 days, 37° C.; four donors
# Description: The activity of the compound in example 2 has been evaluated on surviving UVA irradiated human skins (8 J/cm^2). Fragments of normal human skin, originating from four different donors, are placed in inserts positioned in culture wells. Some antibiotic supplemented culture medium is added in the bottom of the wells. A passage occurs through slow diffusion between both compartments by means of a porous membrane (pore size: 12 μm). The culture medium is renewed every three days. On the skin fragments, every two days, are added 5 μl of the compound to be tested, previously put in a solution at 0.2% in ethanol. The skins are kept surviving for 7 days at 37° C. The skins are irradiated once at 8 J/cm^2 at 37° C. (Vilbert-Lourmat lamp, RMX-3W). The elastic fibres are coloured in blue using (+) catechin and are morphometrically quantified by computer assisted picture analysis. The surface percentage of average dermis occupied by the elastic fibres was evaluated this way.
# [4] = molecular target: T1, human leukocyte elastase (HLE) (Homo sapiens, UniProt P08246); assay: anti-elastase activity relative to human leukocyte elastase, Me-OSAAPV-p-NA substrate, spectrophotometry; format: biochemical
# T1 sequence (P08246 30-267): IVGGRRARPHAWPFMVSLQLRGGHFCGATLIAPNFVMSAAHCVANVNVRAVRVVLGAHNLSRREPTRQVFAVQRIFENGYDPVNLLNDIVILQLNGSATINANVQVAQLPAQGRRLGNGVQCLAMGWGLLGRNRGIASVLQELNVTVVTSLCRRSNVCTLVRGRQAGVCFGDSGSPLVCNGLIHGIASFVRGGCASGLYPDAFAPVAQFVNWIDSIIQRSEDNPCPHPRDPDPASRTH
# Description: The anti-elastase activity of compounds according to the invention has been determined relative to human leukocyte elastase (HLE).
# The test is performed as follows. […]
# The inhibition % of the control elastase activity is then determined through spectrophotometry.
Structure (SMILES),Surface % occupied by the elastic fibres [1],"Surface % occupied by the elastic fibres ([2]; Skin 1, HLE 10 μg/ml + 0.1% compound)","Surface % occupied by the elastic fibres ([2]; Skin 2, HLE 10 μg/ml + 0.1% compound)",Morphometric analysis of the collagen (superficial dermis) [3],Morphometric analysis of the elastic fibres (superficial dermis) [3],Inhibition % of the control elastase activity ([4]; concentration of compound A 0.2%),inhibition of the elastase activity (in words) ([4]; even in a low amount),"Inhibition % of the control elastase activity ([4]; compound concentration 0.1%, HLE 40 milli-units per ml, 37° C., 60 minutes)"
"CC(=O)N(c1cccc(C(F)(F)F)c1)C(C(=O)NCC(=O)O)C(C)C (centres unmarked) [Compound A, {2-[acetyl-(3-trifluoromethyl-phenyl)-amino]-3-methyl-butyrylamino}acetic acid]",7.1%,13.95%,11.85%,92%,6.8%,68%,strong inhibition,–
"CCOC(=O)CNC(=O)C(C(C)C)N(Cc1ccccc1)C(=O)CP(=O)(OCC)OCC (centres unmarked) [Compound B, ethyl (2-{benzyl-[(diéethoxyphosphoryl)-acetyl]-amino}-3-méthylbutyrylamino) acetate]",–,–,–,–,–,–,–,17%

# Reference: patent US20040191203A1, “Cosmetic or dermatological composition comprising n-acylaminoamide derivatives” (priority 2001, published 2004)
